The values below are quoted from earlier work in paper PMC10425210 (The Journal of Clinical Investigation, 2023).

On the set-up of data set [1]: method as in PMID 29008798. Conditions: cited from earlier work.
In a further data set the test system is SHIV109CP3. Also on record: method as in PMID 31175822. Conditions: cited from earlier work.

`C#C[C@]1(CO)O[C@@H](n2cnc3c(N)nc(F)nc32)C[C@@H]1O` [islatravir]: the “adverse finding during clinical development” value in data set [1] is on record as “unanticipated lymphopenia”. Moreover, the prevention of infection result in the data set on SHIV109CP3 was “proven efficacy at preventing infection”.
